Data: ChEMBL document CHEMBL1136124, “Copper complex of hydroxyl-substituted triazamacrocyclic ligand and its antitumor activity” (2003)

Experiments:
Bel-7402 [1] = assay: In vitro antitumor activity of concentration of 10-3 mol.L-1 against BEL-7402 cell line using MTT assay; assay type: functional, Homo sapiens; conditions: for inhibition: Homo sapiens
HXO-RB44 cell line [2] = assay: In vitro antitumor activity of concentration of 10-4 mol.L-1 against HXO-RB44 cell line using MTT assay; assay type: functional, Homo sapiens; conditions: for inhibition: Homo sapiens
HXO-RB44 cell line [3] = assay: In vitro antitumor activity of concentration of 10-5 mol.L-1 against HXO-RB44 cell line using MTT assay; assay type: functional, Homo sapiens; conditions: for inhibition: Homo sapiens
HXO-RB44 cell line [4] = assay: In vitro antitumor activity of concentration of 10-6 mol.L-1 against HXO-RB44 cell line using MTT assay; assay type: functional, Homo sapiens; conditions: for inhibition: Homo sapiens
Bel-7402 [5] = assay: In vitro antitumor activity of compound at a concentration 10-4 mol.L-1 against BEL-7402 cell line using MTT assay; assay type: functional, Homo sapiens; conditions: for inhibition: Homo sapiens
Bel-7402 [6] = assay: In vitro antitumor activity of compound at a […] mol.L-1 against BEL-7402 cell line using MTT assay; assay type: functional, cell-based; conditions: Homo sapiens

Compound	Inhibition (Bel-7402 [1])	Inhibition (HXO-RB44 cell line [2])	Inhibition (HXO-RB44 cell line [3])	Inhibition (HXO-RB44 cell line [4])	Inhibition (Bel-7402 [5])	inhibition (Bel-7402 [1])	inhibition (HXO-RB44 cell line [2])	inhibition (HXO-RB44 cell line [3])	inhibition (Bel-7402 [6])	inhibition (HXO-RB44 cell line [4])	inhibition (Bel-7402 [5])
OC1CNCCNCCNC1	34%	3%	3%	1%	16%	–	–	–	–	–	–
COPPER	–	–	–	–	–	81%	5%	3%	2%	0%	3%
[1,4,7]Triazecan-9-ol copper complex	–	–	–	–	–	97%	64%	13%	11%	2%	47%
